Publication PMC12021911, “Comparative evaluation of antimicrobial peptides: effect on formation, metabolic activity and viability of Klebsiella pneumoniae biofilms” (Frontiers in Microbiology, 2025)
≈ marks a conversion by molar mass, not a printed value. Read-outs that look alike come from different tables or passages of the source. Bridge positions count the residues as written; N and C are the ends. Square brackets hold non-standard residues; d marks the D form. Peptide text beside a SMILES is read from it. * marks the point of attachment. X1 = CC[C@H](C)CCCCC(=O)*; Dab = NCC[C@H](N)C(=O)O

Tests used:
Format in all cases: cell-based, Klebsiella pneumoniae
K. pneumoniae 17349 [1] = experiment: microbe, parasite or virus in culture
Method: (§1) Three different strains of K. pneumoniae were investigated in this study which were originally isolated from a human, a pig and a dog (Table 2) and characterized in previous studies ([Krieger et al., 2021]; [Krieger et al., 2022]). Minimum inhibitory concentration (MIC) values were determined according to EUCAST guidelines by microdilution test and are shown in Supplementary Table S1.
(§2) Table S1 Minimum inhibitory concentration (MIC) values of the three K. pneumoniae strains,
(§3) determined according to EUCAST guidelines by microdilution test.
(§4) MIC [µg/mL] of indicated antibiotics

[2] = test system: K. pneumoniae 42KC-108224-1; experiment: microbe, parasite or virus in culture
Method: as §1, §2, §3, §4

K. pneumoniae IMT40061 [3] = experiment: microbe, parasite or virus in culture; conditions: EUCAST guidelines, microdilution test
Method: as §1, §2, §3, §4

[4] = test system: all three K. pneumoniae strains; experiment: crystal violet assay, biofilm formation, statements on all three strains
Method: (§5) To quantify biofilm formation, the crystal violet assay was done as described previously ([Sager et al., 2015]). Specifically, bacteria were grown in 10 mL BHI broth for 18 h at 37°C on a shaking platform (120 rpm). Subsequently 100 μL of a 1:100 dilution of this overnight culture in BHI was transferred to 96-well plates and incubated for 24 h at 37°C. Wells with BHI broth only were used as blank. Five replicates were investigated per strain. After incubation the suspension was discarded, plates were washed three times with tap water and air-dried. Subsequently, 100 μL of 1% crystal violet (T123.1, Th. Geyer GmbH & Co. KG, Renningen, Germany) in distilled water was added to each well and incubated for 15 min at room temperature before rinsing the plates four times with tap water and air-drying them again. One hundred μL of 99% ethanol were added to each well for 15 min at room temperature to dissolve the remaining crystal violet. Subsequently, the optical density at 540 nm (OD540) was measured using the BioTek Synergy H1 microplate reader to quantify biofilm mass remaining in the wells. OD values of the blank were subtracted from all the samples. Each experiment was conducted three times.
(§6) To determine the effect of the AMPs on biofilm formation of K. pneumoniae, a standardized bacterial suspension and serial dilutions of antimicrobial agents were incubated together as conducted for determination of planktonic growth. After incubation the crystal violet assay was performed as described above. The percentage of biofilm formation was calculated based on the growth control. The experiment was conducted at least three times.

[5] = test system: K. pneumoniae 42KC-108224-1; experiment: crystal violet assay, biofilm formation upon AMP treatment; conditions: for biofilm mass (crystal violet), percentage of the growth control: 16 μg/mL, 22 h, 37°C, 50% BHI, mean, n ≥ 3
Method: as §5, §6

K. pneumoniae IMT40061 [6] = experiment: as above; conditions: 16 μg/mL; 22 h, 37°C, 50% BHI; mean, n ≥ 3
Method: as §5, §6

K. pneumoniae 17349 [7] = experiment: fluorescence assay on mature biofilms (SYTO 9 / propidium iodide); conditions: 24 h treatment of mature biofilm; concentration not given
[8] = test system: K. pneumoniae 42KC-108224-1; experiment: as above; conditions: 24 h treatment of mature biofilm; strongest reduction, concentration not given
Method: The proportion of living and dead bacteria was determined using the fluorescence assay FilmTracer™ LIVE/DEAD biofilm viability kit (L10316, Life Technologies GmbH, Darmstadt, Germany). A bacterial count of 2 × 10^7 CFU/mL was inoculated in 50% BHI broth, 100 μL were added to a 96-well plate in duplicate and plates were incubated for 22 h at 37°C. Wells containing only BHI broth were used as blank. After incubation, the supernatant was discarded and plates were washed three times with sterile PBS. […] After incubation for 24 h at 37°C and washing three times with sterile PBS, 50 μL filter-sterilized water containing 0.15 μL each of SYTO™ 9 stain and propidium iodide stain was added to each well. Plates were incubated for 20 min at room temperature in the dark. The staining solution was discarded and the plates were washed three times with sterile PBS. The fluorescence intensity of the SYTO™ 9 stain (λex = 470 nm, λem = 500 nm) and the propidium iodide stain (λex = 490 nm, λem = 635 nm) were measured on a BioTek Synergy H1 microplate reader and corrected for the blank values. The percentage of fluorescence intensity was calculated based on the negative control. The SYTO™ 9/propidium iodide ratio was calculated. The experiment was conducted at least three times.

[9] = EUCAST guidelines, microdilution test
[10] = Klebsiella pneumoniae, 17349, EUCAST guidelines, microdilution test, read-out: MIC
[11] = Klebsiella pneumoniae, 42KC1082241, EUCAST guidelines, microdilution test, read-out: MIC
[12] = Klebsiella pneumoniae, IMT40061, read-out: MIC
[13] = Klebsiella pneumoniae, 42KC1082241

Row | Compound | MIC (K. pneumoniae 17349 [1]; [10]) | MIC [2, 11] | MIC (K. pneumoniae IMT40061 [3]; [12]) | also measured
1 | CC[C@H](C)CCCCC(=O)N[C@@H](CCN)C(=O)N[C@H](C(=O)N[C@@H](CCN)C(=O)N[C@H]1CCNC(=O)[C@H]([C@@H](C)O)NC(=O)[C@H](CCN)NC(=O)[C@H](CCN)NC(=O)[C@H](CC(C)C)NC(=O)[C@@H](CC(C)C)NC(=O)[C@H](CCN)NC1=O)[C@@H](C)O [Colistin] (X1-[Dab]T[Dab][Dab][Dab][dL]L[Dab][Dab]T; lactam 4-C (inferred); N-terminus assumed) |  |  |  | MIC (K. pneumoniae 17349 [1]; [9]): 0.25 µg/mL (≈ 0.214 µM); MIC [2, 9]: 0.25 µg/mL (≈ 0.214 µM); MIC (K. pneumoniae IMT40061 [3]): < 0.0625 µg/mL
2 | Piperacillin/Tazobactam |  |  |  | MIC (K. pneumoniae 17349 [1]; [9]): 1/4; MIC [2, 9]: 1/4; MIC (K. pneumoniae IMT40061 [3]): > 64/4
3 | CC(C)(O/N=C(\C(=O)N[C@@H]1C(=O)N2C(C(=O)[O-])=C(C[n+]3ccccc3)CS[C@H]12)c1csc(N)n1)C(=O)O [Ceftazidime] | < 0.25 µg/mL | < 0.25 µg/mL | > 32 µg/mL | 
4 | C[C@H]1c2cccc(O)c2C(=O)C2=C(O)[C@]3(O)C(=O)C(C(N)=O)=C(O)[C@@H](N(C)C)[C@@H]3[C@@H](O)[C@@H]21 [Doxycycline] | 0.5 µg/mL (≈ 1.13 µM) | 1 µg/mL (≈ 2.25 µM) | 4 µg/mL (≈ 9 µM) | 
5 | C[C@H]1COc2c(N3CCN(C)CC3)c(F)cc3c(=O)c(C(=O)O)cn1c23 [Levofloxacin] |  |  | > 8 µg/mL | MIC (K. pneumoniae 17349 [1]; Klebsiella pneumoniae, 17349): < 0.0625 µg/mL; MIC [2, 13]: < 0.0625 µg/mL
6 | GIINTLQKYYCRVRGGRCAVLSCLPKEEQIGKCSTRGRKCCRRKK [hbD3, Human defensin, purchased from PeptaNova GmbH] |  |  |  | biofilm mass, % of the untreated control ([4]; all three strains, concentration not given): less than 40%; biofilm mass reduced to ([4]; concentration and strain not given): ≤ 28%
7 | C[C@H]1[C@H](NC(=O)/C(=N\OC(C)(C)C(=O)O)c2csc(N)n2)C(=O)N1S(=O)(=O)O [Aztreonam] | < 0.25 µg/mL | < 0.25 µg/mL | > 16 µg/mL | 
8 | VRLIVAVRIWRR-NH2 [compound 1018, Synthetic antimicrobial peptide] |  |  |  | biofilm mass (crystal violet), percentage of the growth control [5]: 54%; biofilm mass (crystal violet), percentage of the growth control (K. pneumoniae IMT40061 [6]): 61%; viable biofilm mass (SYTO™ 9) (K. pneumoniae 17349 [7]): less than 30%; viable biofilm mass (SYTO™ 9) [8]: less than 30%
9 | O=C(O)c1cn(C2CC2)c2cc(N3CCNCC3)c(F)cc2c1=O [Ciprofloxacin] |  |  | > 4 µg/mL | MIC (K. pneumoniae 17349 [1]; Klebsiella pneumoniae, 17349): < 0.0312 µg/mL; MIC [2, 13]: 0.0625 µg/mL (≈ 0.189 µM)
10 | CCN1CCN(C(=O)N[C@@H](C(=O)N[C@@H]2C(=O)N3[C@@H]2SC(C)(C)[C@@H]3C(=O)O)c2ccccc2)C(=O)C1=O [Piperacillin] | 2 µg/mL (≈ 3.86 µM) | 4 µg/mL (≈ 7.73 µM) | > 64 µg/mL | 
11 | CO/N=C(\C(=O)N[C@@H]1C(=O)N2C(C(=O)O)=C(COC(C)=O)CS[C@H]12)c1csc(N)n1 [Cefotaxime] | < 0.0625 µg/mL | < 0.0625 µg/mL | > 8 µg/mL | 
12 | VDKPPYLPRPRPPROIYNO-NH2 [Onc72, Insect-derived proline-rich AMP, derivate of Oncopeltus antibacterial peptide 4] |  |  |  | biofilm mass (crystal violet), percentage of the growth control [5]: 36%; biofilm formation inhibited to ([5]; concentration not given): 36%; viable biofilm mass (SYTO™ 9) [8]: 51%
13 | CC1(C)S[C@@H]2[C@H](NC(=O)[C@H](N)c3ccccc3)C(=O)N2[C@H]1C(=O)O [Ampicillin] | 16 µg/mL (≈ 45.8 µM) | > 32 µg/mL | > 32 µg/mL | 
